Measured values as given in article PMC10388202, “Single amino acid–based PROTACs trigger degradation of the oncogenic kinase BCR–ABL in chronic myeloid leukemia (CML)” (The Journal of Biological Chemistry, 2023).
Values joined by “and” are separate entries in the source; they are usually repeats but may differ in a detail not shown here. Equal entries are not always repeated. “Also recorded” adds a separate entry of the source. Where two headings read alike, the source gives them in different places. Peptide text beside a SMILES is read from it. * marks the point of attachment. Cbz = O=C(OCc1ccccc1)*

Tests used:
[1] = biological target: T1, BCR–ABL (Homo sapiens, UniProt P00519+P11274); test: BCR–ABL degradation in K562 cells (immunoblot); assay type: cell-based; parameters: assessed in human CML K562 cells bearing BCR–ABL; host or cells: K562; conditions: for time at which BCR–ABL reduction appears: 1 nM; for DC50: immunoblot, read-out: DC50 (drug concentration that degrades 50% protein)
T1 sequence (P11274+P00519 fused): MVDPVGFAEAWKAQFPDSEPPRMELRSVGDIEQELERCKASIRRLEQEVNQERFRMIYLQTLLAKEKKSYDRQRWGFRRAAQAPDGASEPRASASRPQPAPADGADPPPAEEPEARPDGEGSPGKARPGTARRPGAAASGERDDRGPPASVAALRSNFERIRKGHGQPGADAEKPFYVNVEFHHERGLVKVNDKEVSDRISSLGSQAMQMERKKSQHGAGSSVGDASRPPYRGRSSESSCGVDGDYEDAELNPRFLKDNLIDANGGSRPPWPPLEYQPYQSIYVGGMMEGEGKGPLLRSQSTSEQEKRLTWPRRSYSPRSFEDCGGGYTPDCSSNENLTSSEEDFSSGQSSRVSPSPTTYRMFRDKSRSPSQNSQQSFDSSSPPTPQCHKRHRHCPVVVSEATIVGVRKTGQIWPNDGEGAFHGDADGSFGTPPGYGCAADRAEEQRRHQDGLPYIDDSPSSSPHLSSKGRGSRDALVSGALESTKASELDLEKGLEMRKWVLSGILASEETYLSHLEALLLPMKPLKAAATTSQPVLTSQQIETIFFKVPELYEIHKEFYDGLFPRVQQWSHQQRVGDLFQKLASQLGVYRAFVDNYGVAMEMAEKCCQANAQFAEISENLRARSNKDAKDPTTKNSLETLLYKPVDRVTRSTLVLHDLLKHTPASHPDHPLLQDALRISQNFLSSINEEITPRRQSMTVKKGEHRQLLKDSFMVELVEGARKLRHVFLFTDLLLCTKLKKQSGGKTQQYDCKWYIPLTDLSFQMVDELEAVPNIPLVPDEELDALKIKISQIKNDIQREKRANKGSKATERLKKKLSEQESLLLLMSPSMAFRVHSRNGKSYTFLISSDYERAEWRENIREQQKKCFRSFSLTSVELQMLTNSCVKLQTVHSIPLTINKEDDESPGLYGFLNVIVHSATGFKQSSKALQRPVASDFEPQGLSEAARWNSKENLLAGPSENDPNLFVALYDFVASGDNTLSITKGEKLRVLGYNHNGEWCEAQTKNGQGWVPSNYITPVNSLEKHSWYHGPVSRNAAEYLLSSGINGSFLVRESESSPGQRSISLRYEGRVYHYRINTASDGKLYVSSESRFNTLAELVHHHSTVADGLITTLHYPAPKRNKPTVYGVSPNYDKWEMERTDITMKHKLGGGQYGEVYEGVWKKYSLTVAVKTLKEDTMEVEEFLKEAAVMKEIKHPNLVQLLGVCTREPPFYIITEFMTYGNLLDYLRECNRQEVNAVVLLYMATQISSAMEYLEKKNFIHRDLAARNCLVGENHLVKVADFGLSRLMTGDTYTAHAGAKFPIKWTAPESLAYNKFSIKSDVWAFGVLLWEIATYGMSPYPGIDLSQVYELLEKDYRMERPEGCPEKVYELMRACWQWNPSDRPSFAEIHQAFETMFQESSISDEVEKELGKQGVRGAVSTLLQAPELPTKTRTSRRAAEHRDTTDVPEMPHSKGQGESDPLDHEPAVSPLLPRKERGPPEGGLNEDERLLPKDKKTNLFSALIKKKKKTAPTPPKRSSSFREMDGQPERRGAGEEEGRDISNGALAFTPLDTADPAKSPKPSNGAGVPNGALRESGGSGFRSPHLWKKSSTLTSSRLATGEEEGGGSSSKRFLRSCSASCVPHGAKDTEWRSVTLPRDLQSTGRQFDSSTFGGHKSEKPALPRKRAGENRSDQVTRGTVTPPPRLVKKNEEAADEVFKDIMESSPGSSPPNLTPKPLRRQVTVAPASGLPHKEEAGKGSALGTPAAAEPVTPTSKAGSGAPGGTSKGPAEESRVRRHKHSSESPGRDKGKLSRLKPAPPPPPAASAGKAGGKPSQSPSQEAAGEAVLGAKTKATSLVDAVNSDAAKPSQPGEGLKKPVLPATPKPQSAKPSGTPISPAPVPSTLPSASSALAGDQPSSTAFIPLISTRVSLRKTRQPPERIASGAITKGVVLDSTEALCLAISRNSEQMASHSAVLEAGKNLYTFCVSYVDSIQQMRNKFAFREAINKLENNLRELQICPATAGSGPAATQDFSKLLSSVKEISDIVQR
Description: (§1) The ability of Arg-PEGn-Dasa PROTACs to induce BCR–ABL degradation was assessed in human CML K562 cells bearing BCR–ABL. […] We next evaluated the impact of Arg-PEGn-Dasa on cell proliferation in K562 cells using Cell Counting Kit-8 (CCK-8) assay.
(§2) Cells were collected and lysed in radioimmunoprecipitation assay buffer (50 mM Tris–HCl [pH 8.0], 1% NP-40, 150 mM NaCl, 0.1% SDS, 0.5% sodium deoxycholate, and 1× complete protease inhibitor cocktail) on ice for 20 min and centrifuged at 15,000 rpm for 10 min at 4 °C to collect the supernatant. After protein concentrations were measured by the bicinchoninic acid protein assay kit (Thermo Scientific), samples with equal amounts of proteins were mixed with loading buffer and denatured by boiling. Protein lysates were resolved by SDS-PAGE and transferred to polyvinylidene fluoride membranes. Then, the membranes were blocked in 5% nonfat milk for 1 h at room temperature, incubated with a primary antibody overnight at 4 °C, and then incubated with horseradish peroxidase–conjugated secondary antibodies for 1 h at room temperature. Subsequently, the membranes were probed with ECL reagent (Millipore), and proteins were visualized by a Tanon-5200 Automatic Chemiluminescence Imaging Analysis System (Tanon).

[2] = test system: K562 cells; test: K562 cell viability, CCK-8 assay; assay type: cell-based; conditions: Homo sapiens, 48 h, read-out: IC50 (half maximal inhibitory concentration), K562 proliferation
Description: K562 cells (5 × 10^3 cells per well) were grown in 96-well plates with 100 μl medium. After the treatment with the PROTACs at various concentrations (0, 0.01, 0.1, 0.25, 0.5, 0.75, 1, and 2.5 nM) for 48 h, CCK-8 solution was added to each well and incubated for 2 h at 37 °C, and the number of viable cells was determined by measuring the absorbance of the converted dye at a 450 nm wavelength, according to the manufacturer’s instructions (Yeasen). Each experiment was performed at least three times independently.

[3] = biological target: T2, BCR–ABL (Homo sapiens, UniProt P00519); test: BCR–ABL degradation in K562 cells (immunoblot); assay type: cell-based; conditions: 5 nM, 48 h, read-out: DMax (maximum degradation percentage in comparison with control) at 5 nM
T2 construct: assessed in human CML K562 cells bearing BCR–ABL; host or cells: K562
T2 sequence (P00519 whole entry, looked up): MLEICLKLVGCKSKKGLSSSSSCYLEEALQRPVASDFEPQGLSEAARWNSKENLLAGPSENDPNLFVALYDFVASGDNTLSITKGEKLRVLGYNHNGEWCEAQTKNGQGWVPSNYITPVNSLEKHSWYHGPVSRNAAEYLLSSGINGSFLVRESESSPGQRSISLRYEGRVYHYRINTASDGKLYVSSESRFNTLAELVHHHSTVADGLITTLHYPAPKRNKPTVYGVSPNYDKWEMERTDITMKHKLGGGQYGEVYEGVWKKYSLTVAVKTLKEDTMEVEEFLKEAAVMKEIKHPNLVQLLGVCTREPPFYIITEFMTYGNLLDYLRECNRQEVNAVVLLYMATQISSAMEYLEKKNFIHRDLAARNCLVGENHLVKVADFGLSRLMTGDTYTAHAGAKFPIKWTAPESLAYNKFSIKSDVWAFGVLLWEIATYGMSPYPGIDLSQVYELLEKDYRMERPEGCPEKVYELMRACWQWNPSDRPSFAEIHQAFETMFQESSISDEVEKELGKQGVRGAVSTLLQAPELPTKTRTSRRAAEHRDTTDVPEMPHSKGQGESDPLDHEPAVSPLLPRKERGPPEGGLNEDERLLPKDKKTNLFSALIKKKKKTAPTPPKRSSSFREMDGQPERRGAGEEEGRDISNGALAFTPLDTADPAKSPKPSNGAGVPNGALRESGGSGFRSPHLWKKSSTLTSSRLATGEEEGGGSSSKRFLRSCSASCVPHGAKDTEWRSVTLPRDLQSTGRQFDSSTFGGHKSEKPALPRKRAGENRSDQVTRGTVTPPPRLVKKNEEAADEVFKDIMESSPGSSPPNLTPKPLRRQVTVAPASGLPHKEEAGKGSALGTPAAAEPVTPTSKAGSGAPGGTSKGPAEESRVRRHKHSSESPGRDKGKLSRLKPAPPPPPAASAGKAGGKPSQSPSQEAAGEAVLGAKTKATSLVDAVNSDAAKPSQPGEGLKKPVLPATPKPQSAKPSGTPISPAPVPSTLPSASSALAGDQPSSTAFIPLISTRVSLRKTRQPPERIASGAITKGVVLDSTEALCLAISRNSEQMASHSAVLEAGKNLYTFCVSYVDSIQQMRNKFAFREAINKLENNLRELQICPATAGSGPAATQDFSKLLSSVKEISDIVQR
Description: as §1, §2

[4] = test system: K562 cells; test: K562 cell growth after drug washout (CCK-8); assay type: cell-based, human; conditions: 1 nM 48 h, drug-free medium 1 to 4 days
Description: Figure 2 Arg-PEG (1–4)-Dasa induced the degradation of BCR–ABL through the proteasome.A, K562 cells were incubated with Arg-PEG (1–4)-Dasa bearing different numbers of PEG linker at indicated concentration for 48 h. The expression of various proteins indicated was determined by immunoblotting. B, K562 cell viability was examined using CCK-8 assays after the treatment with Arg-PEG (1–4)-Dasa for 48 h at various concentrations (0, 0.01, 0.1, 0.25, 0.5, 0.75, 1, and 2.5 nM). C, immunoblot analysis of the indicated proteins in K562 cells treated with various compounds at 1 nM for 48 h. D, immunoblot analysis of the proteins indicated in K562 cells treated with gradually increasing doses of Arg-PEG1-Dasa for 48 h. E, immunoblot analysis of the indicated proteins in K562 cells treated with DMSO, Arg-PEG1-Dasa, Dasa, or NH2-PEG1-Dasa at 1 nM for 48 h. F, immunoblot analysis of the indicated proteins in K562 cells pretreated with Dasa or NH2-PEG1-Dasa (1 nM) for 2 h followed by Arg-PEG1-Dasa treatment at 1 nM for 48 h. G and H, K562 cells were treated with indicated compounds at 1 nM for 2 days, following washout and incubation compound-free medium. G, cell growth was detected using CCK-8 assays at the indicated times. H, the protein level indicated was tested with immunoblot. […]

[5] = Body weight of mice in K562 xenograft model; assay type: in vivo
Description: (§3) To evaluate the effects of the N-end rule–based PROTAC on tumor growth in vivo, we set up a K562 CML xenograft mouse model. K562 cells were subcutaneously implanted into the right flank of female nude mice. When the tumors reached a palpable volume of about 50 to 80 mm^3 at day 7, the mice bearing K562 tumors were then divided into two groups randomly and administered every other day with either vehicle or Arg-PEG1-Dasa (10 mg/kg) for total 10 doses by intraperitoneal injection. Tumor volumes were measured at indicated time with calipers. When sacrificed on day 27, the tumors were harvested and photographed (Fig. 6A). The amount of BCR–ABL protein in vivo upon Arg-PEG1-Dasa treatment was examined in K562 xenograft mouse model using the immunohistochemistry (Fig. 6B) and immunoblot (Fig. 6C). […]. Further studies are needed to optimize PROTAC or administration strategy to achieve better therapeutic effects.
(§4) K562 cells (1 × 10^7 cells/200 μl) were subcutaneously injected into the right flank of 4-week-old female nude mice. […]. The drugs were subsequently administered by i.p. injection every other day with either vehicle, Arg-PEG1-Dasa, or Dasa (10 mg/kg) for total 10 doses. The growth of tumors in mice was measured with a Vernier caliper. The tumor volume was determined using the formula volume = 0.5 × (length) × (width)^2. […]

[6] = test system: pSTAT5; test: STAT5 phosphorylation after drug washout (immunoblot); assay type: cell-based, human; conditions: K562 cells, 1 nM 2 days, compound-free medium
Description: For controls, we also examined the activity of the PROTAC without the single amino acid (an intermediate product NH2-PEG1-Dasa, Fig. S1A) or Dasa alone on cell viability of K562 cells for 48 h. […] Moreover, the ability of Arg-PEG1-Dasa–mediated degradation of BCR–ABL was mitigated by cotreatment with excess Dasa or NH2-PEG1-Dasa in the competition assay (Fig. 2F). One advantage of PROTACs versus traditional inhibitors is that only the transient drug–target interaction is needed for its target suppression.
as §2, with “Subsequently, the membranes were probed with ECL reagent (Millipore), and proteins were visualized by a Tanon-5200 Automatic Chemiluminescence Imaging Analysis System (Tanon).” left out

[7] = test system: K562 xenograft; test: K562 CML xenograft mouse model, tumor growth; assay type: in vivo; conditions: nude mice, 10 mg/kg i.p. every other day, 10 doses, day 27
Description: as §3, §4

[8] = test system: glutathione-S-transferase-BCR–ABL; test: Ubiquitination assay of GST-BCR–ABL in HEK293T cells (denaturing IP); assay type: cell-based, human; conditions: HEK293T cells coexpressing GST-BCR–ABL and myc-Ub, 48 h
Description: To determine the degradation pathway of BCR–ABL induced by PROTAC, we added lysosome acidification inhibitor chloroquine or proteasome inhibitor MG132 into Arg-PEG1-Dasa–treated K562 cells. […] To ascertain that Arg-PEG1-Dasa induced BCR–ABL turnover, we monitored the degradation kinetics of BCR–ABL with or without the PROTAC treatment. K562 cells were treated with cycloheximide to block protein synthesis and sampled at various time points for BCR–ABL levels. […] To further evaluate the involvement of the proteasome in PROTAC-induced degradation, we also added the proteasome inhibitor MG132 in the reaction. […] We next sought to investigate the Arg-PEG1-Dasa–induced ubiquitination of BCR–ABL.
Ubiquitination of BCR–ABL was detected using denatured immunoprecipitation. Cells were lysed in SDS-denaturing buffer (50 mM Tris–HCl [pH 7.4], 150 mM NaCl, 1% NP-40, 1% SDS, and 0.5% sodium deoxycholate) and boiled for 10 min. Cell lysates were then diluted 10-fold in native lysis buffer (50 mM Tris–HCl [pH 7.4], 150 mM NaCl, 1% NP-40, and 0.5% sodium deoxycholate). After centrifugation at 15,000 rpm for 10 min, the supernatants were immunoprecipitated using glutathione-Sepharose 4B beads (GE Healthcare) and incubated for 2 h at 4 °C. Beads were then washed five times using the native lysis buffer. […]

[9] = biological target: T1, BCR–ABL; test: BCR–ABL protein in K562 xenograft tumors (immunohistochemistry, immunoblot); conditions: nude mice, 10 mg/kg i.p. every other day, 10 doses, IHC and immunoblot
Description: To evaluate the effects of the N-end rule–based PROTAC on tumor growth in vivo, we set up a K562 CML xenograft mouse model. K562 cells were subcutaneously implanted into the right flank of female nude mice. […] Tumor volumes were measured at indicated time with calipers. When sacrificed on day 27, the tumors were harvested and photographed (Fig. 6A).
Cells were collected and lysed in radioimmunoprecipitation assay buffer (50 mM Tris–HCl [pH 8.0], 1% NP-40, 150 mM NaCl, 0.1% SDS, 0.5% sodium deoxycholate, and 1× complete protease inhibitor cocktail) on ice for 20 min and centrifuged at 15,000 rpm for 10 min at 4 °C to collect the supernatant. After protein concentrations were measured by the bicinchoninic acid protein assay kit (Thermo Scientific), samples with equal amounts of proteins were mixed with loading buffer and denatured by boiling. Protein lysates were resolved by SDS-PAGE and transferred to polyvinylidene fluoride membranes. Then, the membranes were blocked in 5% nonfat milk for 1 h at room temperature, incubated with a primary antibody overnight at 4 °C, and then incubated with horseradish peroxidase–conjugated secondary antibodies for 1 h at room temperature. Subsequently, the membranes were probed with ECL reagent (Millipore), and proteins were visualized by a Tanon-5200 Automatic Chemiluminescence Imaging Analysis System (Tanon). […]

Row | SMILES | IC50 [2] [nM] | Dmax at 0.005 µM [3] [%] | time at which BCR–ABL reduction appears [1] [h] | DC50 ([1]; 48 h) | further results
1 | CC(C)C[C@@H](C=O)NC(=O)[C@H](CC(C)C)NC(=O)[C@H](CC(C)C)NC(=O)OCc1ccccc1 [MG132, reference compound] (Cbz-Leu-Leu-Leu-aldehyde) | – | – | – | – | effect on Arg-PEG1-Dasa–mediated degradation of BCR–ABL ([1]; MG132 10 μM or chloroquine 25 μM with Arg-PEG1-Dasa 1 nM, 48 h): blocked
2 | Cc1nc(Nc2ncc(C(=O)Nc3c(C)cccc3Cl)s2)cc(N2CCN(CCOC(=O)CCOCCOCCNC(=O)C(N)CCCNC(=N)N)CC2)n1 (stereo not shown) [Arg-PEG2-Dasa] | 0.53 | – | – | – | –
3 | Cc1nc(Nc2ncc(C(=O)Nc3c(C)cccc3Cl)s2)cc(N2CCN(CCO)CC2)n1 [Dasa, dasatinib, reference compound] | – | – | – | – | cell growth after drug removal [4]: gradually resumed; also recorded: rapid recovery; body weight / tolerability ([5]; mouse, in vivo, ip, 10 mg/kg): without significant loss of body weight; pSTAT5 / STAT5 phosphorylation after drug withdrawal [6]: gradually recovered; tumor growth [7]: potent tumor growth inhibition
4 | Cc1nc(Nc2ncc(C(=O)Nc3c(C)cccc3Cl)s2)cc(N2CCN(CCOC(=O)CCOCCNC(=O)C(N)CCCNC(=N)N)CC2)n1 (stereo not shown) [Arg-PEG1-Dasa] | 0.359 | 98.8 | 48 | 0.85 nM and 0.849 nM | cell growth after drug removal [4]: sustained growth inhibition; body weight / tolerability ([5]; nude mice, 10 mg/kg i.p. every other day, 10 doses): did not significantly alter the body weight; also recorded: without overt drug toxicity; ubiquitination of immunoprecipitated BCR–ABL [8]: displayed the ubiquitination of immunoprecipitated BCR–ABL; pSTAT5 / STAT5 phosphorylation after drug withdrawal [6]: remained markedly diminished; BCR–ABL protein level in tumor [9]: significantly downregulated; tumor growth ([7]; 10 mg/kg): dramatically impeded tumor growth; also recorded: does not exhibit better antitumor effects than Dasa; also recorded: robust antitumor effects; BCR–ABL protein level after drug withdrawal ([1]; 1 nM 2 days, washout, compound-free medium): remained markedly diminished; BCR–ABL degradation kinetics (cycloheximide chase) ([1]; 2.5 nM for 32 h, then cycloheximide): quickly reduced; DC50 ([1]; 48 h, listed as Arg-based PROTAC): ~0.85 nM; BCR–ABL degradation in combination with Lys-, Leu-, or Phe-PEG1-Dasa ([1]; Arg-PEG1-Dasa mixed with varying doses of second PROTAC): not further enhanced
5 | Cc1nc(Nc2ncc(C(=O)Nc3c(C)cccc3Cl)s2)cc(N2CCN(CCOC(=O)CCOCCNC(=O)[C@@H](N)CCCCN)CC2)n1 [Lys-PEG1-Dasa] | 0.457 | 99.1 | 48 | 0.981 nM | DC50 ([1]; 48 h, listed as Lys-based PROTAC): 0.98 nM

More lines, main results first:

Row | IC50 [2] [nM] | Dmax at 0.005 µM [3] [%] | time at which BCR–ABL reduction appears [1] [h] | DC50 ([1]; 48 h) | SMILES | further results
6 | 0.524 | – | – | – | Cc1nc(Nc2ncc(C(=O)Nc3c(C)cccc3Cl)s2)cc(N2CCN(CCOC(=O)CCOCCOCCOCCOCCNC(=O)C(N)CCCNC(=N)N)CC2)n1 (stereo not shown) [Arg-PEG4-Dasa] | –
7 | 0.22 | 91.2 | 12 | 0.479 nM | Cc1nc(Nc2ncc(C(=O)Nc3c(C)cccc3Cl)s2)cc(N2CCN(CCOC(=O)CCOCCNC(=O)[C@@H](N)CC(C)C)CC2)n1 [Leu-PEG1-Dasa] | DC50 ([1]; 48 h, listed as Leu-based PROTAC): 0.48 nM
8 | 0.294 | 81 | 36 | 1.56 nM | Cc1nc(Nc2ncc(C(=O)Nc3c(C)cccc3Cl)s2)cc(N2CCN(CCOC(=O)CCOCCNC(=O)[C@@H](N)Cc3ccccc3)CC2)n1 [Phe-PEG1-Dasa] | DC50 ([1]; 48 h, listed as Phe-based PROTAC): 1.56 nM
9 | 0.48 | – | – | – | Cc1nc(Nc2ncc(C(=O)Nc3c(C)cccc3Cl)s2)cc(N2CCN(CCOC(=O)CCOCCOCCOCCNC(=O)C(N)CCCNC(=N)N)CC2)n1 (stereo not shown) [Arg-PEG3-Dasa] | –
